US11738042B2, “Compositions and methods for promoting bone regeneration” (The Penn State Research Foundation, priority 2018, dated 2023)

Columns and labels:
Type in all cases: cell-based, human
[1] = system: hMSCs; assay: Protein synthesis assay in undifferentiated hMSCs; conditions: for citrate-mediated protein synthesis in presence of inhibitor: GM, with citrate
Protocol: Upon 24 and 96 hours incubation, protein synthesis was measured by labeling the intracellular translating proteins with clickable probes (Protein Synthesis Assay kit, Cayman Chemical, Ann Arbor, Mich.).

[2] = system: hMSCs; assay: ALP production / osteogenic markers of hMSCs with soluble citrate, PSer or inhibitor (PNPP assay, western blot)
Text: (§1) hMSCs with passage ≤6 were used in the present differentiation study. […] For osteo-phenotype progression assessment, cells were lysed, and alkaline phosphatase (ALP) production was quantified by using p-nitrophenyl phosphate (PNPP) as its substrate. Alizarin Red was used to stain the calcium nodules formed by the differentiating cells, and the calcium content in the nodules was quantified by Calcium Assay Kit (Sigma-Aldrich, St. Louis, Mo.) and normalized to protein amount as determined by BCA protein assay kit (Thermo Scientific™, Waltham, Mass.). Expression of osteogenic master transcription factor Runx2 was examined by real-time PCR and by using a Runx2 ELISA kit (American Research Products, Inc.™, Waltham, Mass.) according to manufacturer's instructions. Moreover, the expression of bone matrix proteins Collagen type I and osteopontin (OPN) were evaluated with real-time PCR, while OPN expression were also observed by immunofluorescent staining. Western blot was performed to evaluate the expression of ALP, OPN and SLC13a5 before or after differentiating for predetermined time periods.
For ALP expression analysis, cell samples were lysed using RIPA buffer, and the cell lysate was centrifuged to remove debris. Then ALP activity measurement was performed by utilizing p-nitrophenyl phosphate (PNPP) which is hydrolyzed by ALP into a yellow colored product. Briefly, the PNPP stock solution (IM) was diluted with ALP assay buffer at a ratio of 1:100, 50 μL of which was subsequently added to 50 μL of lysate sample. After 10-30 min of incubation at 37° C., the plates were measured at 405 nm on a plate reader (TECAN, Männedorf, Switzerland). The same cell lysate solutions were used to determine DNA amount via a PicoGreen dsDNA quantification kit (Invitrogen, Carlsbad, Calif.) according to the manufacturer's instructions.
After protein quantification by BCA assay, gel electrophoresis was carried out on AnykD™ Mini-Protean TGX stain-free Protein gels at 50 V for 10 min, followed by 250 V for 10-20 min, and was transferred to PVDF membranes with the Trans-Blot Turbo™ system. […]

[3] = system: hMSCs; assay: Intracellular ATP determination in hMSCs
[4] = system: hMSCs; assay: Oxygen consumption rate (OCR) study in hMSCs
[5] = system: hMSCs; assay: hMSC proliferation with citrate (CCK-8); conditions: citrate 0 to 2000 μM, pH 7.4, in growth medium (GM)
Text: as §1
Human mesenchymal stem cells (hMSCs; Lonza) were cultured in low glucose Dulbecco's Modified Eagle Medium (DMEM) with 10 vol. % fetal bovine serum (FBS) (Atlanta Biologicals; Flowery Branch, Ga.) and GlutaMAX (Gibco Laboratories, Gaithersburg, Md.). […]

[6] = system: hMSCs; assay: Alizarin Red staining and calcium quantification of hMSCs; conditions: citrate in growth medium (GM)
Protocol: hMSCs with passage ≤6 were used in the present differentiation study. […] Alizarin Red was used to stain the calcium nodules formed by the differentiating cells, and the calcium content in the nodules was quantified by Calcium Assay Kit (Sigma-Aldrich, St. Louis, Mo.) and normalized to protein amount as determined by BCA protein assay kit (Thermo Scientific™, Waltham, Mass.).
For Alizarin Red staining, cell samples were fixed with 4% paraformaldehyde, and 40 mM Alizarin red solutions were used to stain calcium nodules for 30 min with gentle shaking. After thoroughly washing, the stained cells were observed on a Microscope (Nikon, Tokyo, Japan). For calcium quantification, cell samples were washed with PBS and decalcified in 0.6 N HCl for 12 h with gentle shaking. Calcium content in the supernatants was determined colorimetrically by using the Calcium assay kit (Sigma-Aldrich, St. Louis, Mo.), while protein content in cell lysate solutions (lysed with RIPA buffer) was determined using the Pierce BCA protein assay kit (Thermo Scientific™, Waltham, Mass.) according to manufacturer's instructions.

[7] = system: hMSCs; assay: Real-time PCR of osteogenic genes in differentiating hMSCs; conditions: 200 μM citrate vs OG control, 7 and 14 days
Text: as §1
Total RNA from whole cells was isolated with QIAGEN RNeasy kit (Hilden, Germany) and was transcribed into cDNA using High-Capacity cDNA Reverse Transcription Kits (Applied Biosystems™, Foster City, Calif.). For quantitative analysis, real-time PCR was performed using cDNA as the template, together with TaqMan Gene Expression Master Mix and the TaqMan Gene Expression Assays with both primers and probe included (Applied Biosystems™, Foster City, Calif.), and using the ABI 7900HT Fast Real-Time PCR system (Applied Biosystems™, Foster City, Calif.) according to manufacturer's instructions. Human PPIA (Cyclophilin A) was used for normalization. The primers and TaqMan probe for human Runx2, CoL1A1, SPP1 and PPIA were Hs00231692_ml, Hs00164004_ml, Hs00959010_ml, and Hs99999904_ml, respectively.

[8] = system: hMSCs; assay: Runx2 ELISA in hMSCs; conditions: citrate treatment in OG, as early as day 4
Text: as §1

[9] = system: hMSCs; assay: Citrate assay, intracellular citrate in hMSCs; conditions: 24 h incubation with citrate supplemented medium
[10] = system: hMSCs; assay: Extracellular acidification rate (ECAR) / glycolysis and lactate production in hMSCs; conditions: undifferentiated hMSCs, 24 h citrate treatment in GM
[11] = differentiating hMSCs in OG, vs OG medium control
[12] = undifferentiated hMSCs, 24 h citrate treatment in GM

SMILES: C[C@@H]1C[C@@H]([C@H](O)CC2CC(=O)NC(=O)C2)C(=O)[C@@H](C)C1 [Cycloheximide]
- citrate-mediated protein synthesis in presence of inhibitor [1]: abolished this activity

SMILES: COc1ncc(C)cc1CC[C@@](O)(CC(=O)O)C(=O)O [PF06761281, reference compound]
- citrate-induced elevation of ALP production with SLC13a5 inhibitor ([2]; 14 days in OG, citrate plus inhibitor): negated the citrate-induced elevation of ALP production
- citrate effect on metabolic flux to elevate intracellular ATP levels, with SLC13a5 inhibitor ([3]; undifferentiated hMSCs, citrate plus inhibitor): could be abolished
- citrate-increased mitochondrial respiration with SLC13a5 inhibitor ([4]; hMSCs differentiated for 14 days, 1 day treatment in OG): likewise abolished

SMILES: N[C@@H](COP(=O)(O)O)C(=O)O [PSer, Phosphoserine]
- citrate-promoted osteo-phenotype progression (ALP production) ([2]; 40 μM PSer with citrate in OG, 21 days): substantially enhanced
- ALP production ([2]; higher PSer dosages (up to 1000 μM) with citrate in OG, 21 days): further elevation of ALP production
- intracellular ATP [3, 11]: showed no difference from the OG medium control
- intracellular ATP levels ([3]; undifferentiated hMSCs, addition of PSer with or without citrate treatment): no significant effect

SMILES: CCC(=O)N1CCN(c2ccc(-n3c(=O)ccc4cnc5ccc(-c6cnc7ccccc7c6)cc5c43)cc2C(F)(F)F)CC1 [Torin1]
- citrate-mediated protein synthesis in presence of inhibitor [1]: abolished this activity

SMILES: O=C(O)CC(O)(CC(=O)O)C(=O)O [citrate]
- hMSCs proliferation [5]: little increase
- calcium deposition by Alizarin Red staining [6]: absence of calcium deposition
- expression of Col1a1 (real-time PCR) [7]: remarkably elevated expression
- expression of Runx2 (real-time PCR) [7]: remarkably elevated expression
- expression of SPP1 (real-time PCR) [7]: remarkably elevated expression
- Runx2 protein (ELISA) [8]: favorable accumulation
- protein synthesis ([1]; 200 μM citrate in GM, 24 h and 96 h, vs control without citrate): increased significantly
- intracellular citrate [9]: marked increase
- intracellular ATP [3, 11]: showed no difference from the OG medium control
- intracellular ATP ([3]; hMSCs differentiated for 14 days, citrate in OG for 1 or 4 days): significant effects on intracellular ATP only after 4 days of treatment
- intracellular ATP levels [3, 12]: elevated intracellular ATP levels
- mitochondrial respiration (OCR) ([4]; hMSCs differentiated for 14 days, 1 day citrate treatment in OG): markedly increased
- oxygen consumption rate (OCR) [4, 12]: increased oxygen consumption rate
- glycolytic flux (ECAR) [10]: decrease in glycolytic flux
- production of lactate [10]: reduced production of lactate
